Measurements taken from ChEMBL document CHEMBL4376821, “Recent Developments in Therapeutic Peptides for the Glucagon-like Peptide 1 and 2 Receptors” (J Med Chem, 2020).
Non-standard residues stand in square brackets, D forms with d. Residues, ends and D or L forms follow the SMILES beside them. *: point of attachment. Palmitoyl = CCCCCCCCCCCCCCCC(=O)*; Nle = CCCC[C@H](N)C(=O)O

Key:
[1] = Half life in human plasma; format: ADME, cell-free
[2] = molecular target: Glucagon-like peptide 1 receptor (Homo sapiens, UniProt P43220); experiment: Agonist activity at human GLP-1 receptor expressed in CHO-K1 cells assessed as cAMP induction by FRET assay; format: functional, cell-based
Chain of Glucagon-like peptide 1 receptor (P43220 whole entry): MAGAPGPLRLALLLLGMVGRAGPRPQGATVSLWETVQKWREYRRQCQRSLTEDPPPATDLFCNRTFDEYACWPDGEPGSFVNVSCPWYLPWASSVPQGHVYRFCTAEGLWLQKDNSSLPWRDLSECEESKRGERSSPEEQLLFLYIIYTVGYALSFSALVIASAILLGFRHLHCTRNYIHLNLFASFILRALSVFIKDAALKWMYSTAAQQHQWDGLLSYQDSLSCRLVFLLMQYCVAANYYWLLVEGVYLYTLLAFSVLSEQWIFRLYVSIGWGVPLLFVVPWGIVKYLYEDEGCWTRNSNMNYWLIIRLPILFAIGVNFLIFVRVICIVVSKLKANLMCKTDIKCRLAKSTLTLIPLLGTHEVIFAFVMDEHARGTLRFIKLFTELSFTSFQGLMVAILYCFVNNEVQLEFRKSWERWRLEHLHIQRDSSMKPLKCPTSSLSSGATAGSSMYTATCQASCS

[3] = molecular target: T1, Glucagon-like peptide 2 receptor (Homo sapiens, UniProt O95838); experiment: Agonist activity at human GLP-2 receptor expressed in CHO-K1 cells assessed as cAMP induction by FRET assay; format: functional, cell-based
T1 sequence (O95838 whole entry): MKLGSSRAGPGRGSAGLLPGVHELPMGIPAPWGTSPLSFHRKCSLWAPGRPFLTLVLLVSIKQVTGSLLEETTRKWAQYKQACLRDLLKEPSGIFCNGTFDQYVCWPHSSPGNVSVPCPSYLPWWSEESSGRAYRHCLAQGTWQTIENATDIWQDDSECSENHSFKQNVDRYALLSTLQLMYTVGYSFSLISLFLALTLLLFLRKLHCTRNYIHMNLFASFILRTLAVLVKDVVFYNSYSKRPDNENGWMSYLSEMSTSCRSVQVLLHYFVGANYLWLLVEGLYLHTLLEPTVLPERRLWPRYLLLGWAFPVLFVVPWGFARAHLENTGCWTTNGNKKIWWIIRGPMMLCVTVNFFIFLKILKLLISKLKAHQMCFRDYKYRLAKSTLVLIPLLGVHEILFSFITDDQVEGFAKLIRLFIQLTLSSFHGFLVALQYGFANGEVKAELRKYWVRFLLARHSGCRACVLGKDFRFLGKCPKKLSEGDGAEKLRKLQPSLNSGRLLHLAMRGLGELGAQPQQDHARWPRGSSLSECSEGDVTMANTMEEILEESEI

[4] = Half life in C57BL/6J mouse at 800 nmol/kg, sc measured up to 24 hrs by LC-MS/MS analysis; format: ADME, organism-based; settings: in vivo
[5] = Clearance in Sprague-Dawley rat at 0.2 mg/kg, iv; format: ADME, organism-based; settings: in vivo
[6] = Terminal half life in cynomolgus monkey at 0.25 mg/kg, sc; format: ADME, organism-based, Macaca fascicularis; settings: in vivo, read-out: beta t1/2
[7] = Half-life in Yucatan mini-pig at 0.15 mg, sc; format: ADME, Sus scrofa domesticus; settings: in vivo
[8] = Half life in human at 15 mg, sc qd measured on day 8 by liquid chromatography/tandem mass spectrometry method; format: ADME, organism-based; settings: in vivo
[9] = Half life in human; format: ADME
Homo sapiens = species: Homo sapiens; experiment: Induction of plasma citrulline level in human; format: functional
[10] = Half life in human plasma at 0.5 mg for 4 weeks followed by 0.5 mg for 4 weeks and subsequently 1 mg for weeks administered subcutaneously once weekly and measured up to 840 hrs post last dose by LC-MS/MS analysis; format: ADME; settings: sc

## CC[C@H](C)[C@H](NC(=O)[C@H](Cc1ccccc1)NC(=O)[C@H](CCC(=O)O)NC(=O)[C@H](CCCCN)NC(=O)[C@H](C)NC(=O)[C@H](C)NC(=O)[C@H](CCC(N)=O)NC(=O)CNC(=O)[C@H](CCC(=O)O)NC(=O)[C@H](CC(C)C)NC(=O)[C@H](Cc1ccc(O)cc1)NC(=O)[C@H](CO)NC(=O)[C@H](CO)NC(=O)[C@@H](NC(=O)[C@H](CC(=O)O)NC(=O)[C@H](CO)NC(=O)[C@@H](NC(=O)[C@H](Cc1ccccc1)NC(=O)[C@@H](NC(=O)CNC(=O)[C@H](CCC(=O)O)NC(=O)[C@H](C)NC(=O)[C@@H](N)Cc1cnc[nH]1)[C@@H](C)O)[C@@H](C)O)C(C)C)C(=O)N[C@@H](C)C(=O)N[C@@H](Cc1c[nH]c2ccccc12)C(=O)N[C@@H](CC(C)C)C(=O)N[C@H](C(=O)N[C@@H](CCCCN)C(=O)NCC(=O)N[C@@H](CCCNC(=N)N)C(=O)O)C(C)C
[1]
  half-life: < 2 min

## CCCCCCCCCCCCCCCC(=O)NCCCC[C@H](NC(=O)[C@H](Cc1ccc(O)cc1)NC(=O)[C@@H](NC(=O)[C@H](CO)NC(=O)[C@H](CC(C)C)NC(=O)[C@H](CCC(=O)O)NC(=O)[C@H](CO)NC(=O)[C@@H](NC(=O)[C@H](Cc1ccccc1)NC(=O)[C@H](CO)NC(=O)CNC(=O)[C@H](CC(=O)O)NC(=O)CNC(=O)[C@@H](N)Cc1cnc[nH]1)[C@@H](C)O)[C@@H](C)O)C(=O)N[C@@H](CC(=O)O)C(=O)N[C@@H](C)C(=O)N[C@@H](CC(C)C)C(=O)N[C@@H](C)C(=O)N[C@@H](C)C(=O)N[C@@H](CCCNC(=N)N)C(=O)N[C@@H](CC(=O)O)C(=O)N[C@@H](Cc1ccccc1)C(=O)N[C@H](C(=O)N[C@@H](C)C(=O)N[C@@H](Cc1c[nH]c2ccccc12)C(=O)N[C@@H](CC(C)C)C(=O)N[C@H](C(=O)N[C@@H](CCC(N)=O)C(=O)N[C@H](C(=O)N[C@@H](CCCCN)C(=O)N[C@H](C(=O)N[C@H](C(=O)N[C@@H](CC(=O)O)C(N)=O)[C@@H](C)O)[C@@H](C)CC)[C@@H](C)O)[C@@H](C)CC)[C@@H](C)CC (H-HGDGSFTSELSTYK(Palmitoyl)DALAARDFIAWLIQTKITD-NH2)
[2]
  EC50: 0.17 nM
[3]
  EC50: 1 nM
[4]
  half-life: 162 min

## CCCC[C@H](NC(=O)[C@H](CCC(=O)O)NC(=O)[C@H](CC(=O)O)NC(=O)[C@H](CO)NC(=O)[C@H](Cc1ccccc1)NC(=O)[C@H](CO)NC(=O)CNC(=O)[C@H](CC(=O)O)NC(=O)CNC(=O)[C@@H](N)Cc1cnc[nH]1)C(=O)N[C@H](Cc1ccccc1)C(=O)N[C@H](C(=O)N[C@H](C(=O)N[C@@H](CC(C)C)C(=O)N[C@@H](CC(=O)O)C(=O)N[C@@H](CC(C)C)C(=O)N[C@@H](CC(C)C)C(=O)N[C@@H](C)C(=O)N[C@@H](C)C(=O)N[C@@H](CCCNC(=N)N)C(=O)N[C@@H](CC(=O)O)C(=O)N[C@@H](Cc1ccccc1)C(=O)N[C@H](C(=O)N[C@@H](CC(N)=O)C(=O)N[C@@H](Cc1c[nH]c2ccccc12)C(=O)N[C@@H](CC(C)C)C(=O)N[C@H](C(=O)N[C@@H](CCC(N)=O)C(=O)N[C@H](C(=O)N[C@@H](CCCCN)C(=O)N[C@H](C(=O)N[C@H](C(=O)N[C@@H](CC(=O)O)C(N)=O)[C@@H](C)O)[C@@H](C)CC)[C@@H](C)O)[C@@H](C)CC)[C@@H](C)CC)[C@@H](C)CC)[C@@H](C)O [FE 203799] (H-HGDGSFSDE[Nle][dF]TILDLLAARDFINWLIQTKITD-NH2)
[5]
  clearance: < 0.3 mL/min/kg
[6]
  half-life: > 1800 min
[7]
  half-life: > 1800 min

## CC[C@H](C)[C@H](NC(=O)[C@H](Cc1ccccc1)NC(=O)[C@H](CC(=O)O)NC(=O)[C@H](CCCNC(=N)N)NC(=O)[C@H](C)NC(=O)[C@H](C)NC(=O)[C@H](CC(C)C)NC(=O)[C@H](CC(N)=O)NC(=O)[C@H](CC(=O)O)NC(=O)[C@H](CC(C)C)NC(=O)[C@@H](NC(=O)[C@@H](NC(=O)[C@H](CC(N)=O)NC(=O)[C@H](CCSC)NC(=O)[C@H](CCC(=O)O)NC(=O)[C@H](CC(=O)O)NC(=O)[C@H](CO)NC(=O)[C@H](Cc1ccccc1)NC(=O)[C@H](CO)NC(=O)CNC(=O)[C@H](CC(=O)O)NC(=O)CNC(=O)[C@@H](N)Cc1c[nH]cn1)[C@@H](C)O)[C@@H](C)CC)C(=O)N[C@@H](CC(N)=O)C(=O)N[C@@H](Cc1c[nH]c2ccccc12)C(=O)N[C@@H](CC(C)C)C(=O)N[C@H](C(=O)N[C@@H](CCC(N)=O)C(=O)N[C@H](C(=O)N[C@@H](CCCCN)C(=O)N[C@H](C(=O)N[C@H](C(=O)N[C@@H](CC(=O)O)C(=O)O)[C@@H](C)O)[C@@H](C)CC)[C@@H](C)O)[C@@H](C)CC [TEDUGLUTIDE]
[8]
  half-life: 120 min

## H-HGDGSFTSELSTYLDALAARDFIAWLIQTKITD-NH2
[2]
  EC50: 0.07 nM
[3]
  EC50: 0.09 nM
[4]
  half-life: 54 min

## H-HGEGTFSSELATILDALAARDFIAWLIATKITDKKKKKK-NH2
[9]
  half-life: 3000 min
Homo sapiens
  Activity: <=86%

## SEMAGLUTIDE
[10]
  t1/2: 165 h
